From patent US7132286B2, “Method for neural stem cell differentiation using valproate” (Psychiatric Genomics, Inc., priority 2001, dated 2006) come the findings set out here.

SMILES strings stand for the structures. Entries after “also recorded” stand apart in the source; their conditions may differ.

What all share (assay type): cell-based
The test system of experiment [1] is rat stem cells from ventral forebrain i.e. the lateral ganglionic eminence (LGE). Kind of experiment: Neuronal differentiation of rat stem cells from ventral forebrain (lateral ganglionic eminence). As to conditions: data not shown. The procedure: Isolation of cortical and striatal stem cells. […] The abdomen of the rat was cleaned with 70% ethanol and the uterus was removed quickly and aseptically on the bench top.
Removal of meninges is not possible at this age, and no attempt was made to do so. If the dissected tissue was in large enough chunks and settle to the bottom of the tube, no centrifugation was performed. Alternatively, the tube was centrifuged at 1000 rpm for 5 minutes to pellet the tissue. Following centrifugation, the 15 ml tube containing the tissue was sprayed with 70% ethanol and taken into the sterile hood.
About 4–5 ml of the 6 ml of cells suspension was used for plating. […] This culture is designated P0 (passage 0).
The cultures were never permitted to reach more than 70% confluency. […] It is not expected that all cells in the culture will round up as there are several cell types in the culture at P0. The pH of the HBSS should be neutral at all times during this incubation.

Experiment [2] has as its system rat cortical stem cells. The experiment is described as follows: Neurite outgrowth of neurons derived from rat cortical stem cells (ArrayScan neurite outgrowth index). As to conditions: 1 day; 0.5 mM valproate, 50 ng/ml BDNF; control 35.1+0.3. The procedure:
Following plating cells were expanded for about 3–4 days (Passage 1, P1). Cells were treated daily with 10 ng/ml bFGF. The cultures were never permitted to reach more than 70% confluency. Cultures were then passaged as follows: 10 ml of HBSS without Ca^2+ and Mg^2+ was added to each 100 mm dish and the cells incubated at 37° C. for 5–15 minutes, or until sufficient numbers of the stem cells were rounded up. It is not expected that all cells in the culture will round up as there are several cell types in the culture at P0. The pH of the HBSS should be neutral at all times during this incubation. Cells were then removed from the dish by pipetting with a 5 ml pipette, and collected in a 15 or 50 ml conical tube, and centrifuged at 1000 g for 5 minutes. Cells were gently re-suspended in medium, counted, and plated at a density of 1×10^6 cells in 10 cm dishes and expanded for about 2 days in bFGF (Passage 1, P1). […]
For analysis of neurite outgrowth, digital images were taken with an ArrayScan HCS System (Cellomics, Pa.) of 100 cells/well treated with valproate (0.5 mM) and BDNF (50 ng/ml) for 1 day. […] Neurite outgrowth index is defined as the percentage of cells whose neurites total more than 20 μm in length, and is calculated using Cellomics' Neurite Outgrowth application.

The subject of experiment [3] is rat cortical stem cells. The experiment is described as follows: Neuronal differentiation of rat cortical stem cells (β-tubulin III immunofluorescence, cell counting). An excerpt:
Isolation of cortical and striatal stem cells. Timed pregnant Sprague Dawley rats were obtained from Taconic at embryonic age E14–E15 were sacrificed by inhalation of excess carbon dioxide. The abdomen of the rat was cleaned with 70% ethanol and the uterus was removed quickly and aseptically on the bench top. The uterus was placed in ice cold HBSS (GIBCO Cat. #20012-027) in a 10 cm petridish. After rinsing the uterus in PBS, embryos were removed from the uterus, rinsed in HBSS and collected in cold HBSS (buffered with HEPES and sodium bicarbonate) in a 10 cm petridish and placed on ice.
Plating, expansion and passaging of cortical and striatal stem cells. A generous amount of the triturated cell suspension was left in the original 15 ml tube to avoid fibroblast contamination in cultures. About 4–5 ml of the 6 ml of cells suspension was used for plating. Cells were plated at a concentration of 1.3×10^3 cells to 3.0×10^3 per cm^2 in 100 mm dish. This culture is designated P0 (passage 0).
Following plating cells were expanded for about 3–4 days (Passage 1, P1). Cells were treated daily with 10 ng/ml bFGF. The cultures were never permitted to reach more than 70% confluency. Cultures were then passaged as follows: 10 ml of HBSS without Ca^2+ and Mg^2+ was added to each 100 mm dish and the cells incubated at 37° C. for 5–15 minutes, or until sufficient numbers of the stem cells were rounded up. It is not expected that all cells in the culture will round up as there are several cell types in the culture at P0. The pH of the HBSS should be neutral at all times during this incubation. Cells were then removed from the dish by pipetting with a 5 ml pipette, and collected in a 15 or 50 ml conical tube, and centrifuged at 1000 g for 5 minutes. Cells were gently re-suspended in medium, counted, and plated at a density of 1×10^6 cells in 10 cm dishes and expanded for about 2 days in bFGF (Passage 1, P1). At that time the cells were passaged as described and plated onto pre-coated poly-L-ornithine/fibronectin vessels at concentrations indicated below for each experiment. Cells were treated with bFGF for 2 additional days. Before each treatment the bFGF was removed from the cells by washing twice with DMEM/F 12 to induce cell differentiation. For neurite outgrowth experiments, cells were seeded at 5×10^3 cells/well in 24-well plates and treated immediately.
Drug treatment. For immunofluorescence and Western analysis, cells were treated daily with either 0.5 mM of valproate (Sigma), 10 ng/ml of BDNF (R & D Systems), 20 ng/ml of NT-3 (R & D Systems), 1 nM 9cis retinoic acid (Sigma) or a dilution of NCM for 6 or 7 days. In some experiments valproate was also added with NCM and/or 9cis RA for 7 days. For human stem cell experiments, valproate (0.5 mM) or BDNF (25 ng/ml) was added for 9 days. For neurite outgrowth experiments, cells were treated for 1 day with 0.5 mM valproate or 50 ng/ml of BDNF. Where applicable, medium was changed every 2 days. After about 5–10 days, preferably on day 6 (i.e., after 6 days of drug exposure) the cells were fixed with a 4% solution of para-formaldehyde (PFA) in PBS, prepared as follows:
Immunofluorescent staining and visualization. Cells were plated at 20,000 cells/well in poly-L-ornithine/fibronectin (1 mg/ml) coated 24-well plates. After fixation, the PBS was aspirated from the fixed cells and the cells were treated with blocking solution (10% normal goat serum-NGS-Jackson Labs), 0.3% Triton-Sigma, in PBS) to saturate non-specific sites and permeabilize the cells. […]

Where [4] appears, read: rat cortical stem cells, 6 days, vs control.

For the molecule `CCCC(CCC)C(=O)O` [valproate, 2-Propylpentanoic acid], the “percentage and number of neurons” value in experiment [1] was “increased the percentage and number of neurons”. In addition, the “neurite index (percentage of cells whose neurites total more than 20 μm in length)” value in experiment [2] is 49+1.9. Besides, the “increase of percentage of β-tubulin III expressing neurons over the control” value in experiment [3] (rat cortical neural stem cells, 6 days) is recorded as ~5 fold. In addition, the morphology of neurons result in experiment [3] (rat cortical stem cells, 6 days valproate) is “growing in clusters and had longer process than cells in control”. In experiment [3] (setting [4]), the “effect on neuronal differentiation (percentage of β-tubulin-III expressing cells) in words” value is recorded as “increases neuronal differentiation more efficiently than neurotrophins or growth factors”; the “effect on number of neurons per field” value was “increases the number of neurons”; the “effect on total cell number (proliferation), bis-benzimide nuclei” value was “without valproate affecting the total cell number; also recorded: total number of cells is comparable to control; also recorded: does not inhibit neural stem cell proliferation”. Further, the “percentage of β-tubulin III expressing neurons (mean+SD)” value in experiment [3] (rat cortical stem cells, daily treatment 6 days, 0.5 mM valproate, 10 ng/ml BDNF, 20 ng/ml NT-3, untreated control 6.2+1.8%) is listed as 25.8+0.8%. The “neuronal differentiation compared to control, in words” value in experiment [3] (rat cortical stem cells, daily treatment 7 days, 0.5 mM valproate, 0.5× NCM, 1 nM 9-cis RA) is recorded as “increased the neuronal differentiation”. The “maximum percentage of neurons” value in experiment [3] (valproate added with 9-cis RA and NCM, 7 days, rat cortical stem cells) is reported as 60%.
